# Reference: patent publication EP4678627A1, “NOVEL FERROPTOSIS INHIBITORS” (Universiteit Antwerpen, priority 2024, dated 2026)
# Experiment: Human liver microsomal stability
# Settings: Corning ultra pool human liver microsome (HLM), NADPH, 1 µM, 0.5 mg/ml protein
smiles,measurement,value
COc1ccc2c(c1)[C@]13CCCC[C@@H]1[C@H](C2)N(C)CC3 [Dextromethorphan],Microsomal stability in human t1/2,40.0 min
